Experiments:
[1] = tested on: MDA-MB-231met2; test: In vitro proliferation assay (Alamar Blue); type: cell-based, human
Description: Cells lines were acquired from cell banks, see supplemental material, grown using the cell banks recommended culture conditions (Supplemental Table 3). In some experiments noted “low folate” the cells were washed and grown in folate free RPMI-1640 media (Gibco #27016-021) supplemented with 5 ml 1 M Hepes, 5 ml 100 mM Na pyruvate, 2.5 mg/ml glucose and 10% defined FBS (Hyclone #SH30070) per 500 mL media for 5–7 days to deplete intracellular folate levels prior to the start of the experiment. Where noted, cells were maintained in complete “high folate” RPMI-1640 media (ATCC #30-2001) with 10% defined FBS to contrast with the low folate conditions. […]
(§1) Cells were cultured using recommended culture conditions unless noted otherwise (Supplemental Table 3). Cells were plated, dosed with compound and incubated at 37 °C for approximately 2 doubling times as determined for each cell line. Cell Titer Glo (Promega) assay was used to measure proliferation according to manufacturer’s recommendations by measuring luminescence with Flexstation3 (Molecular Devices) with 500 ms integration time. […]
(§2) For a limited number of cell lines, compound dosing was performed under high or low folate conditions with cell viability being determined with Alamar Blue rather than an ATP dependent assay. […] The % inhibition for each sample was calculated and fit as described above.

[2] = tested on: cell lines of Table 1; test: Alamar Blue proliferation assay, average over cell lines; type: cell-based; details: Homo sapiens
Description: Cells lines were acquired from cell banks, see supplemental material, grown using the cell banks recommended culture conditions (Supplemental Table 3). In some experiments noted “low folate” the cells were washed and grown in folate free RPMI-1640 media (Gibco #27016-021) supplemented with 5 ml 1 M Hepes, 5 ml 100 mM Na pyruvate, 2.5 mg/ml glucose and 10% defined FBS (Hyclone #SH30070) per 500 mL media for 5–7 days to deplete intracellular folate levels prior to the start of the experiment. Where noted, cells were maintained in complete “high folate” RPMI-1640 media (ATCC #30-2001) with 10% defined FBS to contrast with the low folate conditions.
as §1, §2

[3] = tested on: A9 murine tumors; test: Pharmacodynamic response of tumor metabolites, single PO dose, standard chow; type: in vivo, mouse
Description: Figure 4 Pharmacodynamic response of ZMP (purple), AICAR (blue), […] (green), dUMP (red), AMP (aqua) & GMP (orange) metabolites in tumors following a single PO dose of LSN3213128 in athymic nude mice.

[4] = tested on: A9 tumor; test: Antitumor efficacy and tumor metabolites, A9 tumor model; type: in vivo, mouse; details: A9 tumors
[5] = molecular target: T1, CK2 (Homo sapiens, UniProt P68400); test: CEREP protein kinase assay; type: biochemical
T1 construct: purchased CEREP Panlabs (Eurofins)

[6] = molecular target: T2, HER2 (Homo sapiens, UniProt P04626); test: CEREP protein kinase assay; type: biochemical
T2 construct: purchased CEREP Panlabs (Eurofins)

[7] = molecular target: T3, IKKe (Homo sapiens, UniProt Q14164); test: CEREP protein kinase assay; type: biochemical
T3 construct: purchased CEREP Panlabs (Eurofins)
T3 sequence (Q14164 1-716): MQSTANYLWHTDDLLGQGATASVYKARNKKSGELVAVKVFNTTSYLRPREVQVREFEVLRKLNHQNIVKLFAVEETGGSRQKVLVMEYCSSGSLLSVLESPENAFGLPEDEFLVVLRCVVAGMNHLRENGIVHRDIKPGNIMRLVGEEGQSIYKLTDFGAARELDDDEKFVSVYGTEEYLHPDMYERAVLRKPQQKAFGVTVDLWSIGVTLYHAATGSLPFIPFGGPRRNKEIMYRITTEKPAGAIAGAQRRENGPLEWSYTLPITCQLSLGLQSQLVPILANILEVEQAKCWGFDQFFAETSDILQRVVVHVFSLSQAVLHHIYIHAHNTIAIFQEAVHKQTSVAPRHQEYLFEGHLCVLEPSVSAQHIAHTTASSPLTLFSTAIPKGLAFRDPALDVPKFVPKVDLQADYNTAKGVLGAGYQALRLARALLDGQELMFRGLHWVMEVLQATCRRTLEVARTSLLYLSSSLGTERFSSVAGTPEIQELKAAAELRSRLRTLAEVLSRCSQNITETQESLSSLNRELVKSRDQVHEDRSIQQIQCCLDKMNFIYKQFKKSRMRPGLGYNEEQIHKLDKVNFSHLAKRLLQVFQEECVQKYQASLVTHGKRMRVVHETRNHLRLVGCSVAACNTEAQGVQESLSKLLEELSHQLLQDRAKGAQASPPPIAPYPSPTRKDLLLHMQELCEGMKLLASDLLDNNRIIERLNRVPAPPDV

[8] = molecular target: T4, IRAK4 (Homo sapiens, UniProt Q9NWZ3); test: CEREP protein kinase assay; type: biochemical
T4 construct: purchased CEREP Panlabs (Eurofins)
T4 sequence (Q9NWZ3 1-460): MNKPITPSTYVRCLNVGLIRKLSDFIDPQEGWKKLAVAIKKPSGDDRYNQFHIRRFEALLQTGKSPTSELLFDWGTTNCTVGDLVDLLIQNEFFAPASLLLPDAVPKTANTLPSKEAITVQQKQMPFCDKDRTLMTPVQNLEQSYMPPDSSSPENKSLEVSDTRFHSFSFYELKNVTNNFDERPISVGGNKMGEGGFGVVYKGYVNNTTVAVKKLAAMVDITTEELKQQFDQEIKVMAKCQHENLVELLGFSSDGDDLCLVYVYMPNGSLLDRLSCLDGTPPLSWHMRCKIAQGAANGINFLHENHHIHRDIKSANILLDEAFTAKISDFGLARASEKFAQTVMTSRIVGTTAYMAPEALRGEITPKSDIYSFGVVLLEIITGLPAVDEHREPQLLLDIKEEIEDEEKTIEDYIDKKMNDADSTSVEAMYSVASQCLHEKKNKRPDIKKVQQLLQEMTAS

T2 sequence (P04626 23-1255): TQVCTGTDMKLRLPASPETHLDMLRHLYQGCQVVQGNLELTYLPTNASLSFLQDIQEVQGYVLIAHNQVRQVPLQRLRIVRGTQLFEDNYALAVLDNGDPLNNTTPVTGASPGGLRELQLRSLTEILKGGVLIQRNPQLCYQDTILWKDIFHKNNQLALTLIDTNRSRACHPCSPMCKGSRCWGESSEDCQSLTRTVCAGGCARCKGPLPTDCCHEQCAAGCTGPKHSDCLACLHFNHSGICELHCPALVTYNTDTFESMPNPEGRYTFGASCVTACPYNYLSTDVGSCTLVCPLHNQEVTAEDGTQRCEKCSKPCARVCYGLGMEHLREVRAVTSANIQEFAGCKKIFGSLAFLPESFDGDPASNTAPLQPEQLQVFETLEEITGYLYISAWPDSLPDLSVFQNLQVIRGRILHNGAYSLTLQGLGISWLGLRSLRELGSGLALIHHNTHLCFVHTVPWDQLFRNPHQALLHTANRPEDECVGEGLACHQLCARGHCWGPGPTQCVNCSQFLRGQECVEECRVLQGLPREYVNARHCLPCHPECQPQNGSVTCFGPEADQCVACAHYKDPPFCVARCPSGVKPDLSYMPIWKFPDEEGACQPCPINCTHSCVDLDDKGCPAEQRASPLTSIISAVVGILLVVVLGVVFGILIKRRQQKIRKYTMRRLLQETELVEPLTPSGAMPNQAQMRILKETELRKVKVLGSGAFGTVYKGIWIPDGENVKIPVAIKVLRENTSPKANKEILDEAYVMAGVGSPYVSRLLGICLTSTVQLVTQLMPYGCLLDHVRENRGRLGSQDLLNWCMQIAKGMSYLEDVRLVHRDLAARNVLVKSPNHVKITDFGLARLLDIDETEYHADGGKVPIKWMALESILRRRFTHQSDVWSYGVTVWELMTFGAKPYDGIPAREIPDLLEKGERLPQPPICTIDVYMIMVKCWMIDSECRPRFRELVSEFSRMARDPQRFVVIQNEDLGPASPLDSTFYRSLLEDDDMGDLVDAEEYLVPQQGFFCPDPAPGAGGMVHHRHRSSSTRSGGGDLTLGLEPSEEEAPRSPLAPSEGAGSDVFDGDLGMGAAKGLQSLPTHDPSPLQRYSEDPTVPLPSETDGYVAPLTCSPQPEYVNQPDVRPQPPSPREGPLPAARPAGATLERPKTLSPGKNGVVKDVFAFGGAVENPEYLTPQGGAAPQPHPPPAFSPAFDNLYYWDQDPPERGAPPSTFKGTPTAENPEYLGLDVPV
T1 sequence (P68400 whole entry): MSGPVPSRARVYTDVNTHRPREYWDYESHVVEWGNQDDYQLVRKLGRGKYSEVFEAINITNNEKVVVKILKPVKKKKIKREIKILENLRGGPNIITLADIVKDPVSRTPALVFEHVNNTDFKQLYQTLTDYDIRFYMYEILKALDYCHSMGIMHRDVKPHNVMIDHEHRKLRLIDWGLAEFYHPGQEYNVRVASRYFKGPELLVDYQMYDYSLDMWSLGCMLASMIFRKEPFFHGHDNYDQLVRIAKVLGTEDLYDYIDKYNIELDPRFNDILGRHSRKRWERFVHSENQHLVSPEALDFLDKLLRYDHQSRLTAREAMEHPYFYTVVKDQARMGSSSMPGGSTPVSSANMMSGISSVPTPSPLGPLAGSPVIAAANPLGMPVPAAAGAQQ

Structure (SMILES): O=c1[nH]ccc2cc(F)c(NS(=O)(=O)c3ccc(N4CC[C@@H](O)C4)s3)cc12 [LSN3213128, N-(6-Fluoro-1-oxo-1,2-dihydroisoquinolin-7-yl)-5-[(3R)-3-hydroxypyrrolidin-1-yl]thiophene-2-sulfonamide]
- anti-proliferative effect on supplementation with hypoxanthine ([1]; 32 μM hypoxanthine): completely abrogated
- GI50 ([1]; Homo sapiens, RPMI media, Alamar Blue): 0.088 µM
- GI50 ([2]; low folate, 12 cell lines): 0.0044 ± 0.0045 µM
- GI50 ([2]; regular RPMI, 11 cell lines): 2.4 µM
- dose after which tumor ZMP response appeared to saturate ([3]; nude mice on standard chow, 4 h post PO dose): 30 mg/kg
- tumor dUMP levels ([3]; standard chow, 4 h, up to 100 mg/kg): did not rise
- tumor dUMP ([4]; 100 mg/kg QDx12 dose group): 0.72 ± 0.41 µM
- tumor ZMP levels ([4]; after 12 days of dosing, 100 mg/kg): dramatically elevated
- inhibition at 0.2 µM ([5]; @ 0.2 uM): -7.53%
- inhibition at 2 µM ([5]; @ 2 uM): -0.227%
- inhibition at 20 µM ([5]; @ 20 uM): 1.58%
- inhibition at 0.2 µM ([6]; @ 0.2 uM): 6.55%
- inhibition at 2 µM ([6]; @ 2 uM): 12.4%
- inhibition at 20 µM ([6]; @ 20 uM): 9.08%
- inhibition at 0.2 µM ([7]; @ 0.2 uM): -0.0712%
- inhibition at 2 µM ([7]; @ 2 uM): 8.91%
- inhibition at 20 µM ([7]; @ 20 uM): 11.7%
- inhibition at 0.2 µM ([8]; @ 0.2 uM): -4.69%
- inhibition at 2 µM ([8]; @ 2 uM): 0.428%
- inhibition at 20 µM ([8]; @ 20 uM): -0.827%
